Measurements from patent US6328989A, “Use of bicozamycin for the manufacture of a medicament for treating infections with enterohemorrhagic e. coli” (Fujisawa Pharmaceutical Co., Ltd., priority 1997, dated 2001).
Converted amounts (≈) assume the structure as drawn. “And” between values parts separate entries of the source, which are not always exact repeats. Equal entries are not always repeated. Where two headings read alike, the source gives them in different places.

How the values were obtained:
E. coli O-157:H7 = assay: Minimum inhibitory concentration (MIC) against E. coli O-157:H7 strains by agar dilution method; type: cell-based; details: for MIC50 / MIC90: Escherichia coli, 18 h, 20 strains
VT1 [1] = type: cell-based, E. coli O-157:H7; details: 3h; for VT1 released: control 0h <2, control 3h 2; for VT1 released, ratio to control at 0h: control 3h ratio 2; for VT1 intracellular, ratio to control at 0h: control 3h ratio 32
VT2 [2] = type: cell-based, E. coli O-157:H7; details: 3h; for VT2 released: control 0h <2, control 3h 8; for VT2 intracellular: control 0h <2, control 3h 16; for VT2 released, ratio to control at 0h: control 3h ratio 8; for VT2 intracellular, ratio to control at 0h: control 3h ratio 16
Verotoxins (VT1 and VT2) = type: cell-based, E. coli O-157:H7; details: concentration greater than MIC; compared with untreated E. coli
E. coli O-157 [3] = assay: Viable cells in the cecum of mice infected with E. coli O-157; type: in vivo, E. coli FP1962 in DBA/2 mice; details: for Number of cells in cecum, individual mouse / Number of cells in cecum, mean: day 6; for Number of cells in cecum, individual mouse: DBA/2 mice; for Number of cells in cecum, mean: control mean 3.4 × 10^7
VT1 [4] = assay: Amount of VT1 in cecum of mice infected with E. coli O-157 (VTEC-RPLA); type: in vivo, E. coli FP1962 in DBA/2 mice; details: day 6
VT2 [5] = assay: Amount of VT2 in cecum of mice infected with E. coli O-157 (VTEC-RPLA); type: in vivo, E. coli FP1962 in DBA/2 mice; details: day 6
verotoxins = system: verotoxins; set-up: species or system E. coli FP1962 in DBA/2 mice; details: mouse, in vivo, po
E. coli O-157 [6] = assay: Death of mice infected with E. coli O-157; type: in vivo, E. coli FP1962 in DBA/2 mice; details: 10 mg/kg/dose orally twice a day for 4 days
[7] = 32 mg/kg/dose orally twice a day for 4 days
[8] = 10 mg/kg/dose orally twice a day for 4 days

SMILES	MIC50 (E. coli O-157:H7; aerobic) [µg/mL]	MIC90 (E. coli O-157:H7; aerobic) [µg/mL]	MIC50 (E. coli O-157:H7; anaerobic) [µg/mL]	MIC90 (E. coli O-157:H7; anaerobic) [µg/mL]	VT1 released (VT1 [1]; 10 μg/ml) [maximum dilution times]	VT1 released, ratio to control at 0h (VT1 [1]; 10 μg/ml)	VT1 intracellular, ratio to control at 0h (VT1 [1]; 10 μg/ml)	VT2 released (VT2 [2]; 10 μg/ml) [maximum dilution times]	VT2 intracellular (VT2 [2]; 10 μg/ml) [maximum dilution times]	VT2 released, ratio to control at 0h (VT2 [2]; 10 μg/ml)	VT2 intracellular, ratio to control at 0h (VT2 [2]; 10 μg/ml)	production and release of verotoxins (Verotoxins (VT1 and VT2))	Number of cells in cecum, individual mouse (E. coli O-157 [3]; [7])	Number of cells in cecum, mean (E. coli O-157 [3]; [7])	Amount of VT1 in cecum, individual mouse (VT1 [4]; [7])	Amount of VT2 in cecum, individual mouse (VT2 [5]; [7])	further results
CC1(C)S[C@@H]2[C@H](NC(=O)[C@H](N)c3ccc(O)cc3)C(=O)N2[C@H]1C(=O)O [AMX, Amoxicillin]	3.13 (≈ 8.57 µM)	6.25 (≈ 17.1 µM)	1.56 (≈ 4.27 µM)	3.13 (≈ 8.57 µM)	≥ 256	≥ 256	32	8	4	8	4	both production and release of verotoxins increased much more than those with an untreated E. coli					MIC distribution: number of strains with MIC 1.56 μg/ml (E. coli O-157:H7): 14 strains; MIC distribution: number of strains with MIC 6.25 μg/ml (E. coli O-157:H7): 2 strains; MIC distribution: number of strains with MIC >100 μg/ml (E. coli O-157:H7; aerobic, 20 strains tested): 1 strains; MIC distribution: number of strains with MIC >100 μg/ml (E. coli O-157:H7; anaerobic, 20 strains tested): 1 strains; VT1 intracellular (VT1 [1]; 10 μg/ml, control 0h 2, control 3h 64): 64 maximum dilution times
C=C1CCO[C@]2([C@@H](O)[C@@](C)(O)CO)NC(=O)[C@@]1(O)NC2=O [BCM, Bicozamycin]	25 (≈ 82.7 µM)	25 (≈ 82.7 µM)	12.5 (≈ 41.4 µM)	25 (≈ 82.7 µM)	8	8	16	2	4	2	4	increases in production and release of verotoxins were dramatically suppressed	4.5 × 10^3 cfu/site and 1.0 × 10^2 cfu/site and 8.5 × 10^3 cfu/site and 3.5 × 10^3 cfu/site and 1.0 × 10^5 cfu/site	2.2 × 10^3 cfu/site	< 2 titer	< 2 titer and 2 titer	MIC distribution: number of strains with MIC 25 μg/ml (E. coli O-157:H7; aerobic, 20 strains tested): 20 strains; MIC distribution: number of strains with MIC 12.5 μg/ml (E. coli O-157:H7; anaerobic, 20 strains tested, MIC 12.5 μg/ml): 15 strains; MIC distribution: number of strains with MIC 25 μg/ml (E. coli O-157:H7; anaerobic, 20 strains tested): 5 strains; VT1 released (VT1 [1]; 25 μg/ml): 8 maximum dilution times; VT1 released, ratio to control at 0h (VT1 [1]; 25 μg/ml): 8; VT1 intracellular, ratio to control at 0h (VT1 [1]; 25 μg/ml): 1; VT1 released (VT1 [1]; 100 μg/ml): 8 maximum dilution times; VT1 released, ratio to control at 0h (VT1 [1]; 100 μg/ml): 8; VT1 intracellular, ratio to control at 0h (VT1 [1]; 100 μg/ml): 1; VT2 released (VT2 [2]; 25 μg/ml): < 2 maximum dilution times; VT2 intracellular (VT2 [2]; 25 μg/ml): < 2 maximum dilution times; VT2 released, ratio to control at 0h (VT2 [2]; 25 μg/ml): 1; VT2 intracellular, ratio to control at 0h (VT2 [2]; 25 μg/ml): 1; VT2 released (VT2 [2]; 100 μg/ml): < 2 maximum dilution times; VT2 intracellular (VT2 [2]; 100 μg/ml): < 2 maximum dilution times; VT2 released, ratio to control at 0h (VT2 [2]; 100 μg/ml): 1; VT2 intracellular, ratio to control at 0h (VT2 [2]; 100 μg/ml): 1; antimicrobial activity against VTEC (E. coli O-157 [3]; infected mice, 32 mg/kg/dose orally): showed an antimicrobial activity against VTEC; production and release of verotoxins (verotoxins): suppressed the production and release of verotoxins
CC[C@H]1OC(=O)[C@H](C)[C@@H](O[C@H]2C[C@@](C)(OC)[C@@H](O)[C@H](C)O2)[C@H](C)[C@@H](O[C@@H]2O[C@H](C)C[C@H](N(C)C)[C@H]2O)[C@](C)(OC)C[C@@H](C)C(=O)[C@H](C)[C@@H](O)[C@]1(C)O [CAM, clathromycin]													2.4 × 10^7 cfu/site and 7.9 × 10^7 cfu/site and 1.0 × 10^8 cfu/site and 1.3 × 10^8 cfu/site and 7.0 × 10^6 cfu/site and 4.1 × 10^8 cfu/site	6.5 × 10^7 cfu/site	2 titer and 4 titer	2 titer and 4 titer and < 2 titer and 8 titer	
C[C@@H]1O[C@@H]1P(=O)(O)O [FOM, fosfomycin]													7.1 × 10^5 cfu/site and 3.0 × 10^4 cfu/site and 1.2 × 10^8 cfu/site and 4.6 × 10^7 cfu/site and 9.8 × 10^6 cfu/site and 4.9 × 10^7 cfu/site	6.2 × 10^6 cfu/site	< 2 titer	< 2 titer and 32 titer and 4 titer and 16 titer	
CCn1cc(C(=O)O)c(=O)c2cc(F)c(N3CCNCC3)cc21 [NFLX, norfloxacin]																	Number of cells in cecum, individual mouse (E. coli O-157 [3]; [8]): 6.9 × 10^5 cfu/site; Number of cells in cecum, mean (E. coli O-157 [3]; [8]): 6.9 × 10^5 cfu/site; Amount of VT1 in cecum, individual mouse (VT1 [4]; [8]): 2 titer; Amount of VT2 in cecum, individual mouse (VT2 [5]; [8]): 16 titer; death, individual mouse (E. coli O-157 [6]): died; tested mice that died due to increased verotoxins (E. coli O-157 [6]): Five of 6
